# Experimental data taken from patent US9597347B2, “Compositions for treating obesity and insulin resistance disorders” (President and Fellows of Harvard College, priority 2003, dated 2017).
# Legend:
# C. elegans worms = assay: Nile Red fat staining in C. elegans fed RNAi bacteria; format: in vivo
# Protocol: The role of Sir2.1 in fat metabolism was shown in C. elegans worms in which Sir2.1 was RNA inactivated. Young adult worms were grown to adulthood in the presence of bacteria that carry RNAi vector alone or vector encoding Sir2.1 RNAi (R11A8.4), as described below. These worms were grown in the presence or absence of resveratrol, and stained with Nile-Red as described below.
# We have examined the C. elegans database and found two gene products that are highly related to mammalian AMPK, TOC1.8 and Par2.3; five genes encoding homologs of CPT-1 and one gene encoding a homolog of COT. C. elegans worms were incubated with bacteria carrying RNAi vector alone, or interfering RNA against TOC1.8 or F41E7.3, a C. elegans homologue of COT in the presence or absence of AICAR. Fat accumulation was visualized with Nile-Red, as described below. […] Thus, AICAR/AMPK signaling to fatty acid oxidation is conserved in worms and mammalian cells.
# The effect of TOC1.8 and COT inactivation was then investigated in C. elegans incubated with resveratrol. C. elegans worms were incubated with bacteria carrying RNAi vector alone, or a vector encoding TOC1.8 or COT interfering RNA in the presence or absence of resveratrol. Fat accumulation was visualized with Nile-Red, as described below.
# RNAi plates were seeded with HTT5 E. coli carrying either the L4440 RNAi vector control or the specific RNAi clones T01C8.1, AMPK; R11A8.4, sir-2.1; or F41E7.6 COT in the presence or absence of 100 μM resveratrol. Young adults were transferred to plates containing the appropriate vector, Nile Red stain and drug then maintained at 25° C. Nile Red staining was assessed 24 hours after resveratrol treatment by UV microscopy.
# HT115 E. Coli carrying the RNAi vector, L4440, were used for maintenance feeding. Bacteria containing experimental RNAi clones were cultured in 10 ml Luria Broth media containing 50 μg/ml ampicillin for 18 hours. 350 μl of each culture was spotted to a 60 mm dish containing NGM agar, 6 mM IPTG and 25 μg/ml carbenicillin. After overnight incubation (at room temp), Nile Red was added on top of each dish to a final concentration of 0.05 μg/ml along with the experimental compounds indicated in the figure legends. Nile Red staining was assessed after 24 hrs by UV microscopy. For each batch of RNAi clones tested, L4440 (vector alone) was included. […] All phenotypes were confirmed by at least three additional rounds of testing.
# [1] = test system: AMPK and ACC phosphorylation; assay: Western blot of AMPK and ACC phosphorylation in mouse embryonic fibroblasts; format: cell-based; conditions: LKB1−/− cells; 50, 100, 200 μM
# Protocol: Similar results were also observed in mouse embryonic fibroblast (MEFs). […] Cells in the left panel were incubated overnight without serum before harvesting; the cells on the right were not incubated under serum free conditions. […] Tubulin served as a loading control.
# HepG2 cells = assay: Oxidation of 14C-palmitate in HepG2 cells; format: cell-based; conditions: resveratrol 10 μM in 1% DMSO, AICAR 500 μM in H2O, metformin 1 mM in H2O; 4 hours; vehicle = 1
# Protocol: (§1) Oxidation of 14C-palmitate to acid-soluble products (modified from H4IIEC3 cells [Witters, L. A. and B. E. Kemp, Insulin activation of acetyl-CoA carboxylase accompanied by inhibition of the 5′-AMP-activated protein kinase. J Biol Chem, 1992. 267(5): p. 2864-7] and HepG2 cells were maintained as described above. Cells (10^6 cells/T25) were seeded in a T25 flask one day prior to the experiment. On the day of the experiment cells were washed with assay buffer (114 mM NaCl, 4.7 mM KCL, 1.2 mM KH2PO4, 1.2 mM MgSO4, 11 mM glucose) before labeling with 14C-palmitate (0.4 μCi/ml) in presence of vehicle, or resveratrol (10 μM), or AICAR (500 μM) for 4 hours.
# (§2) At the end of incubation, the cap of each T25 flask was replaced with a stopper and a 1′×1.5″ Whatman filter paper soaked with 250 μl 2N NaOH. Each flask was injected with 2 ml of 6N HCL, placed in a horizontal position for 10 minutes and left standing overnight. The next morning, 1 ml H2O and 61 μl NaOH were added to a glass scintillation vial and the filter papers from each T25 flask were transferred to their respective vial. 10 ml Aquasol was added to each vial and allowed to stand for 2 hours, after which the vials were vortexed to dissolve the […] and counted in the scintillation counter. The results were expressed as nmols/h/106 cells and shown as the fold effect. ^14CO2 production ranged from 0.3 to 1.8 nmols/h/106 cells. The experiment was repeated three times.
# [2] = test system: phosphorylation of AMPK on threonine 172 and of ACC on serine 79; assay: Western analysis of AMPK and ACC phosphorylation in CHO-HIR cells; format: cell-based
# Protocol: CHO-HIR mammalian cells were washed in PBS and incubated overnight in serum-free DMEM before treatment with 500 μM AICAR (positive control) or 12.5 μM, 25 μM or 50 μM resveratrol. Cells were harvested after 30 minutes and lysates were immediately boiled in SDS and subjected to Western analysis with site-specific antibodies. Phosphorylation of AMPK at Thr172 indicates activation of the kinase. Active AMPK phosphorylates and inactivates ACC at serine 79.
# CHO cells were also treated with 500 μM AICAR (positive control), DMSO, 100 nM, 500 nM, 2.5 μM, 12.5 μM, 25 μM, or 50 μM resveratrol and subject to Western Blot analysis as described above. Western blots were stripped and re-probed for phosphorylated (active) AMPK, total AMPK, phosphorylated acetyl CoA carboxylase (ACC), which is the downstream target of AMPK, and tubulin, which served as a loading control.
# H4IIEC3 cells = assay: Oxidation of 14C-palmitate in H4IIEC3 cells; format: cell-based; conditions: resveratrol 10 μM in 1% DMSO, AICAR 500 μM in H2O, metformin 1 mM in H2O; 4 hours; vehicle = 1
# Protocol: as §1, §2
structure (smiles),measurement,setting,value
"Oc1ccc(/C=C/c2cc(O)cc(O)c2)cc1 [resveratrol, 3,5,4′-Trihydroxy-trans-stilbene]",fat mobilization,"C. elegans worms; RNA inactivation of DAF-16, or inactivation of DAF-16 by mutation",had no effect on resveratrol-stimulated fat mobilization
same,fat mobilization,C. elegans worms; RNA inactivation of TOC1.8 (AMPK homolog) or F41E7.3 (COT homolog),blocks resveratrol-stimulated fat mobilization
same,reduction of fat content,"C. elegans worms; RNAi vector alone, 100 μM resveratrol, Nile Red assessed after 24 hours",75%
same,fat mobilization,C. elegans worms; Sir2.1 RNAi (R11A8.4),did not show resveratrol induced fat mobilization
same,AMPK and ACC phosphorylation,[1],still causes an upregulation of both AMPK and ACC phosphorylation
same,14C-CO2 production (Fold Effect),HepG2 cells,6 Fold Effect
same,activation of AMPK (phosphorylated AMPK and ACC),"[2]; CHO cells, 100 nM, 500 nM, 2.5, 12.5, 25 or 50 μM",activation of AMPK in CHO cells with increasing concentrations of resveratrol
same,phosphorylation of AMPK (threonine 172) and ACC (serine 79),"[2]; resveratrol 12.5, 25 or 50 μM, AICAR 500 μM (positive control), 30 minutes, serum-free overnight",stimulates phosphorylation of AMPK and ACC
same,14C-CO2 production (Fold Effect),H4IIEC3 cells,2.3 Fold Effect
